Source: US9981972B2, “N-hydroxy bicyclic hydantoin carbamates as tools for identification of serine hydrolase targets” (ABIDE THERAPEUTICS, INC., priority 2014, dated 2018)
Like-named read-outs stand apart in the source and are kept apart here.

Legend:
Assay type in all cases: biochemical
LYPLA2 = target: T1, LYPLA2 (Mus musculus, UniProt Q9WTL7); assay: Gel-based competitive ABPP in vitro, mouse brain membrane proteome
T1 construct: a complex proteome endogenously expressing LYPLA1/2 was incubated with test compound; from tissue; host or cells: mouse brain, membrane fraction
Procedure, shortened: (§1)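 Mouse brain membrane proteome (1 mg/mL in DPBS) was treated with compound (0.1-100 μM) for 30 min at 37 °C, then labeled with FP-Rh (2 μM final, 30 min, 25 °C). Bands were resolved by SDS-PAGE and scanned in-gel, with inhibition taken from band optical density versus DMSO. Targets counted as active or anti-targets at ≥50% inhibition.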

LYPLA1 = target: T2, LYPLA1 (Mus musculus, UniProt P97823); assay: as above
T2 construct: a complex proteome endogenously expressing LYPLA1/2 was incubated with test compound; from tissue; host or cells: mouse brain, membrane fraction
Procedure, shortened: as §1

[1] = tested on: mouse LYPLA1/2 (quantified together); assay: IC50 by gel-based competitive ABPP in vitro, mouse brain membrane proteome
Experimental: Assay Overview: The purpose of this assay was to determine IC50 values of powder samples of test compounds for enzyme of interest activity, and anti-targets in a complex proteomic lysate using a gel-based competitive ABPP assay. In this assay, a complex proteome was incubated with test compound followed by reaction with FP-Rh and SDS-PAGE analysis as described above.
Protocol Summary: Soluble HeLa cell proteome (50 μL reaction volume, 1 mg/mL in DPBS) or mouse brain membrane proteome (50 μL reaction volume, 1 mg/mL in DPBS) was treated with varying concentrations of test compound (1 μL of a 50× stock in DMSO) for 30 minutes at 37° C. FP-Rh (1 μL of 50× stock in DMSO) was added to a final concentration of 2 μM. The reaction was incubated for 30 minutes at 25° C., quenched with 16 μL 4×SDS-PAGE loading buffer (reducing), separated by SDS-PAGE and visualized by in-gel fluorescent scanning. The percentage activity remaining was determined by measuring the integrated optical density of the enzymes of interest, and anti-target bands relative to a DMSO-only (no compound) control. IC50 values were determined from dose-response curves from three replicates at each inhibitor concentration: 1, 10, 100, 1000, 10000 nM and 0.01, 0.1, 1, 10, 100, 1000, 10000, 50000, and 100000 nM.

ABHD3 = target: T3, ABHD3 (Mus musculus, UniProt Q91ZH7); assay: Gel-based competitive ABPP in vitro, mouse brain membrane proteome; conditions: mouse brain (mem) proteome
T3 construct: from tissue; host or cells: mouse brain, membrane fraction
T3 sequence (Q91ZH7 1-411): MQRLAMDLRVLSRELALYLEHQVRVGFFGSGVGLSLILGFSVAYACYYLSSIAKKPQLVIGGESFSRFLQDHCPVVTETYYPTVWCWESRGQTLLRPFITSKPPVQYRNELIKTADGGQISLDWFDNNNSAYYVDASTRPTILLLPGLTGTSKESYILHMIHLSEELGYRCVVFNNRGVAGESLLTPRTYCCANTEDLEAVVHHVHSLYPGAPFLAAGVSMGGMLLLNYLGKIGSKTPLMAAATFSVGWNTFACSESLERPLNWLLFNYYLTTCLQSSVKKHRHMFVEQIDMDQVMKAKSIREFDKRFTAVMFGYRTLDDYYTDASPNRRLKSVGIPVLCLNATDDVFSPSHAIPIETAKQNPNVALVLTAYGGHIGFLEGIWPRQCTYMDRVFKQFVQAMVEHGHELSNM

PLA2G7 = target: T4, PLA2G7 (Mus musculus, UniProt Q60963); assay: as above; conditions: mouse brain (mem) proteome
T4 construct: from tissue; host or cells: mouse brain, membrane fraction
T4 sequence (Q60963 22-440): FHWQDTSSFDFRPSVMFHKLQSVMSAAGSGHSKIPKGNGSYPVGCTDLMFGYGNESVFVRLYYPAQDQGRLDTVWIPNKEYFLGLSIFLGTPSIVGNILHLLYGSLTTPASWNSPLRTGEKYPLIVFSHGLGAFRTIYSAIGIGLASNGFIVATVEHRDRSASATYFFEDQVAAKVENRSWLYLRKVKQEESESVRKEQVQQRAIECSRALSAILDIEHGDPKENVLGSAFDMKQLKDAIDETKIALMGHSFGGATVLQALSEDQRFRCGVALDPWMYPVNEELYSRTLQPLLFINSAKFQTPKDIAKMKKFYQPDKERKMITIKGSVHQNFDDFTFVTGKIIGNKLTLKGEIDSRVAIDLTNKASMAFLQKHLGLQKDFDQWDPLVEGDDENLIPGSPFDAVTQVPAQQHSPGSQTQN

[2] = mouse LYPLA1/2, in vitro, read-out: mLYPLA1/2 in vitro potency (IC50)
[3] = 10 μM, mouse brain (mem) proteome

T1 sequence (Q9WTL7 whole entry): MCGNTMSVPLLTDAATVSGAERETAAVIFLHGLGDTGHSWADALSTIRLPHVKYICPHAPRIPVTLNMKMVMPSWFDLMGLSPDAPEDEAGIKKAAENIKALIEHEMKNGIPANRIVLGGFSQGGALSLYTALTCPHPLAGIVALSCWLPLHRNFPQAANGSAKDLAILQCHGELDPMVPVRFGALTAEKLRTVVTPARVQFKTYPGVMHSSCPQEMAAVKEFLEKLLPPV
T2 sequence (P97823 whole entry): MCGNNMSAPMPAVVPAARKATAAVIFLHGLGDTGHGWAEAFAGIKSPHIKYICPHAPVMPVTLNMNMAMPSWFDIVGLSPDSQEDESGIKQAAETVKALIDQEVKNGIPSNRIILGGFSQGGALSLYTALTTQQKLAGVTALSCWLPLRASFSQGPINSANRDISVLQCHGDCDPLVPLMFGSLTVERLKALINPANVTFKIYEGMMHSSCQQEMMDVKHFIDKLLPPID

Compound | LYPLA2 in vitro enzyme activity, % @ 1 μM (LYPLA2; mouse brain (mem) proteome) [% @] | LYPLA1 in vitro enzyme activity, % @ 1 μM (LYPLA1; mouse brain (mem) proteome) [% @] | IC50 [1, 2] [nM] | ABHD3 in vitro enzyme activity, % @ 10 μM (ABHD3) [% @] | PLA2G7 in vitro enzyme activity, % @ 10 μM (PLA2G7) [% @] | LYPLA2 in vitro enzyme activity, % @ 10 μM (LYPLA2; [3]) [% @] | LYPLA1 in vitro enzyme activity, % @ 10 μM (LYPLA1; [3]) [% @] | PLA2G7 in vitro enzyme activity, % @ 1 μM (PLA2G7; 1 μM) [% @] | inhibition at 1 µM (LYPLA2; 1 μM compound, 30 min, one replicate, read-out: LYPLA2 % INH 1 μM) [%] | inhibition at 10 µM (LYPLA2; 10 μM compound, 30 min, one replicate, read-out: LYPLA2 % INH 10 μM) [%] | inhibition at 100 µM (LYPLA2; 100 μM compound, 30 min, one replicate, read-out: LYPLA2 % INH 100 μM) [%] | inhibition at 1 µM (LYPLA1; 1 μM compound, 30 min, one replicate, read-out: LYPLA1 % INH 1 μM) [%] | inhibition at 10 µM (LYPLA1; 10 μM compound, 30 min, one replicate, read-out: LYPLA1 % INH 10 μM) [%] | inhibition at 100 µM (LYPLA1; 100 μM compound, 30 min, one replicate, read-out: LYPLA1 % INH 100 μM) [%] | IC50 ([1]; LYPLA1/2 quantified together, mouse brain membrane proteome, read-out: mouse LYPLA1/2 collective IC50 in vitro) [nM] | potency and selectivity for LYPLA1/2, concentration-dependent profiling ([1]; mouse brain membrane SHs, FIG. 7B)
O=C(ON1C(=O)[C@H]2CN(C(=O)N3CCOCC3)CCN2C1=O)N1CCC(CCc2ccc(Cl)cc2)CC1 [Compound 51, (R)-7-(morpholine-4-carbonyl)-1,3-dioxohexahydroimidazo[1,5-a]pyrazin-2(3H)-yl 4-(4-chloro-phenethyl)piperidine-1-carboxylate] | 100 | 100 | 97 | 0 | 100 |  |  |  |  |  |  |  |  |  |  | 
COc1ccc(N2CCN(C(=O)ON3C(=O)[C@@H]4CN(CC5CCN(Cc6ccccc6)CC5)CCN4C3=O)CC2)cc1 [Compound 42, (S)-7-((1-benzylpiperidin-4-yl)methyl)-1,3-dioxo-hexahydroimidazo[1,5-a]pyrazin-2(3H)-yl 4-(4-methoxyphenyl)piperazine-1-carboxylate] |  |  | 29300 | 0 |  | 100 | 50 | 100 |  |  |  |  |  |  |  | 
O=C(ON1C(=O)[C@@H]2CN(C(=O)N3CCOCC3)CCN2C1=O)N1CCC(CCc2ccc(Cl)cc2)CC1 [Compound 50, (S)-7-(morpholine-4-carbonyl)-1,3-dioxohexahydroimidazo[1,5-a]pyrazin-2(3H)-yl 4-(4-chloro-phenethyl)piperidine-1-carboxylate] | 100 | 100 | 117 | 0 | 100 |  |  |  |  |  |  |  |  |  |  | 
O=C(ON1C(=O)C2CN(C(=O)N3CCOCC3)CCN2C1=O)N1CCC(CCc2ccc(Cl)cc2)CC1 (centres unmarked) [Compound 1, 7-(morpholine-4-carbonyl)-1,3-dioxohexahydroimidazo[1,5-a]pyrazin-2(3H)-yl 4-(4-chloro-phenethyl)piperidine-1-carboxylate] |  |  |  |  |  |  |  |  | 100 | 100 | 100 | 100 | 100 | 100 | 154 | good potency and selectivity
